How the values were obtained:
Type in all cases: functional
OVCAR-3 = test: Growth inhibition of human OVCAR3 cells at 10^-5 M incubated for 48 hrs by sulforhodamine B assay; details: OVCAR-3, 48 h, read-out: GI
NCI-H23 = test: Growth inhibition of human NCI-H23 cells at 10^-5 M incubated for 48 hrs by sulforhodamine B assay; details: NCI-H23, 48 h, read-out: GI
NCI-H322M = test: Growth inhibition of human NCI-H322M cells at 10^-5 M incubated for 48 hrs by sulforhodamine B assay; details: read-out: GI
COLO 205 = test: Growth inhibition of human COLO205 cells at 10^-5 M incubated for 48 hrs by sulforhodamine B assay; details: COLO 205, 48 h, read-out: GI
HT-29 = test: Growth inhibition of human HT-29 cells at 10^-5 M incubated for 48 hrs by sulforhodamine B assay; details: HT-29, 48 h, read-out: GI
OVCAR-8 = test: Growth inhibition of human OVCAR8 cells at 10^-5 M incubated for 48 hrs by sulforhodamine B assay; details: OVCAR-8, 48 h, read-out: GI
Hs-578T = test: Growth inhibition of human Hs 578T cells at 10^-5 M incubated for 48 hrs by sulforhodamine B assay; details: read-out: GI
TK-10 = test: Growth inhibition of human TK10 cells at 10^-5 M incubated for 48 hrs by sulforhodamine B assay; details: TK-10, 48 h, read-out: GI
UACC-62 = test: Growth inhibition of human UACC62 cells at 10^-5 M incubated for 48 hrs by sulforhodamine B assay; details: UACC-62, 48 h, read-out: GI
RXF 393 = test: Growth inhibition of human RXF393 cells at 10^-5 M incubated for 48 hrs by sulforhodamine B assay; details: RXF 393, 48 h, read-out: GI
MDA-MB-231 = test: Growth inhibition of human MDA-MB-231 cells at 10^-5 M incubated for 48 hrs by sulforhodamine B assay; details: MDA-MB-231, 48 h, read-out: GI
IGROV-1 = test: Growth inhibition of human IGROV1 cells at 10^-5 M incubated for 48 hrs by sulforhodamine B assay; details: IGROV-1, 48 h, read-out: GI
SK-OV-3 = test: Growth inhibition of human SKOV3 cells at 10^-5 M incubated for 48 hrs by sulforhodamine B assay; details: SK-OV-3, 48 h, read-out: GI
U-251 = test: Growth inhibition of human U251 cells at 10^-5 M incubated for 48 hrs by sulforhodamine B assay; details: U-251, 48 h, read-out: GI
SR = test: Growth inhibition of human SR cells at 10^-5 M incubated for 48 hrs by sulforhodamine B assay; details: read-out: GI
M14 = test: Growth inhibition of human M14 cells at 10^-5 M incubated for 48 hrs by sulforhodamine B assay; details: M14, 48 h, read-out: GI
NCI-H226 = test: Growth inhibition of human NCI-H226 cells at 10^-5 M incubated for 48 hrs by sulforhodamine B assay; details: NCI-H226, 48 h, read-out: GI
DU-145 = test: Growth inhibition of human DU145 cells at 10^-5 M incubated for 48 hrs by sulforhodamine B assay; details: DU-145, 48 h, read-out: GI
NCI/ADR-RES = test: Growth inhibition of human NCI/ADR-RES cells at 10^-5 M incubated for 48 hrs by sulforhodamine B assay; details: read-out: GI
HOP-92 = test: Growth inhibition of human HOP92 cells at 10^-5 M incubated for 48 hrs by sulforhodamine B assay; details: HOP-92, 48 h, read-out: GI
MDA-MB-468 = test: Growth inhibition of human MDA-MB-468 cells at 10^-5 M incubated for 48 hrs by sulforhodamine B assay; details: MDA-MB-468, 48 h, read-out: GI
K562 = test: Growth inhibition of human K562 cells at 10^-5 M incubated for 48 hrs by sulforhodamine B assay; details: K562, 48 h, read-out: GI
SW-620 = test: Growth inhibition of human SW620 cells at 10^-5 M incubated for 48 hrs by sulforhodamine B assay; details: SW-620, 48 h, read-out: GI
SF-268 = test: Growth inhibition of human SF268 cells at 10^-5 M incubated for 48 hrs by sulforhodamine B assay; details: SF-268, 48 h, read-out: GI
A498 = test: Growth inhibition of human A498 cells at 10^-5 M incubated for 48 hrs by sulforhodamine B assay; details: A498, 48 h, read-out: GI
SNB-75 = test: Growth inhibition of human SNB75 cells at 10^-5 M incubated for 48 hrs by sulforhodamine B assay; details: SNB-75, 48 h, read-out: GI
SK-MEL-5 = test: Growth inhibition of human SK-MEL-5 cells at 10^-5 M incubated for 48 hrs by sulforhodamine B assay; details: SK-MEL-5, 48 h, read-out: GI
HCC 2998 = test: Growth inhibition of human HCC2998 cells at 10^-5 M incubated for 48 hrs by sulforhodamine B assay; details: HCC 2998, 48 h, read-out: GI
UACC-257 = test: Growth inhibition of human UACC257 cells at 10^-5 M incubated for 48 hrs by sulforhodamine B assay; details: UACC-257, 48 h, read-out: GI
EKVX = test: Growth inhibition of human EKVX cells at 10^-5 M incubated for 48 hrs by sulforhodamine B assay; details: read-out: GI
PC-3 = test: Growth inhibition of human PC3 cells at 10^-5 M incubated for 48 hrs by sulforhodamine B assay; details: PC-3, 48 h, read-out: GI
MCF7 = test: Growth inhibition of human MCF7 cells at 10^-5 M incubated for 48 hrs by sulforhodamine B assay; details: MCF7, 48 h, read-out: GI
BT-549 = test: Growth inhibition of human BT549 cells at 10^-5 M incubated for 48 hrs by sulforhodamine B assay; details: BT-549, 48 h, read-out: GI
Malme-3M = test: Growth inhibition of human MALME-3M cells at 10^-5 M incubated for 48 hrs by sulforhodamine B assay; details: read-out: GI
SN12C = test: Growth inhibition of human SN12C cells at 10^-5 M incubated for 48 hrs by sulforhodamine B assay; details: read-out: GI
A549 = test: Growth inhibition of human A549/ATCC cells at 10^-5 M incubated for 48 hrs by sulforhodamine B assay; details: A549, 48 h, read-out: GI
OVCAR-5 = test: Growth inhibition of human OVCAR5 cells at 10^-5 M incubated for 48 hrs by sulforhodamine B assay; details: OVCAR-5, 48 h, read-out: GI
CAKI-1 = test: Growth inhibition of human Caki1 cells at 10^-5 M incubated for 48 hrs by sulforhodamine B assay; details: CAKI-1, 48 h, read-out: GI
ACHN = test: Growth inhibition of human ACHN cells at 10^-5 M incubated for 48 hrs by sulforhodamine B assay; details: read-out: GI

SMILES	inhibition of growth at 10 µM (OVCAR-3)	inhibition of growth at 10 µM (NCI-H23)	inhibition of growth at 10 µM (NCI-H322M)	inhibition of growth at 10 µM (COLO 205)	inhibition of growth at 10 µM (HT-29)	inhibition of growth at 10 µM (OVCAR-8)	inhibition of growth at 10 µM (Hs-578T)	inhibition of growth at 10 µM (TK-10)	inhibition of growth at 10 µM (UACC-62)	inhibition of growth at 10 µM (RXF 393)	inhibition of growth at 10 µM (MDA-MB-231)	inhibition of growth at 10 µM (IGROV-1)	inhibition of growth at 10 µM (SK-OV-3)	inhibition of growth at 10 µM (U-251)	inhibition of growth at 10 µM (SR)	inhibition of growth at 10 µM (M14)	inhibition of growth at 10 µM (NCI-H226)	inhibition of growth at 10 µM (DU-145)	inhibition of growth at 10 µM (NCI/ADR-RES)	inhibition of growth at 10 µM (HOP-92)	further results
O=C1Nc2c(sc3ccc(Cl)cc23)C(c2ccccc2O)N1 (configuration not stated)	4.91%	13.5%	7.77%	-9.33%	-3.51%	3.5%	3.74%	-18.6%	13.9%	-4.74%	19.7%	19.7%	4.45%	4.41%	19.1%	2.49%	18.7%	-8.18%	1.65%	21%	inhibition of growth at 10 µM (MDA-MB-468): 0.19%; inhibition of growth at 10 µM (K562): 14.7%; inhibition of growth at 10 µM (SW-620): -1.05%; inhibition of growth at 10 µM (SF-268): 7.91%; inhibition of growth at 10 µM (A498): 17.4%; inhibition of growth at 10 µM (SNB-75): 27.4%; inhibition of growth at 10 µM (SK-MEL-5): 4.49%; inhibition of growth at 10 µM (HCC 2998): -15.3%; inhibition of growth at 10 µM (UACC-257): 9.85%; inhibition of growth at 10 µM (EKVX): 21.9%; inhibition of growth at 10 µM (PC-3): 15.2%; inhibition of growth at 10 µM (MCF7): -8.18%; inhibition of growth at 10 µM (BT-549): 4.41%; inhibition of growth at 10 µM (Malme-3M): 15.8%; inhibition of growth at 10 µM (SN12C): 7.73%; inhibition of growth at 10 µM (A549): -1.35%; inhibition of growth at 10 µM (OVCAR-5): 1.92%; inhibition of growth at 10 µM (CAKI-1): 18.5%; inhibition of growth at 10 µM (ACHN): 9.18%
O=C1Nc2c(sc3ccc(Cl)cc23)C(c2cccc(Br)c2)N1 (configuration not stated)	6.24%	9.39%	5.33%	-4.67%	-7.8%	-2.63%	-5.56%	-23.4%	8.42%	-18.1%	6.83%	20.8%	19.7%	-3.91%	20.9%	1.96%	3.66%	-8.69%	12.2%	0.42%	inhibition of growth at 10 µM (MDA-MB-468): -26.3%; inhibition of growth at 10 µM (K562): 6.28%; inhibition of growth at 10 µM (SW-620): -0.2%; inhibition of growth at 10 µM (SF-268): 0.19%; inhibition of growth at 10 µM (A498): -8.2%; inhibition of growth at 10 µM (SNB-75): 15.2%; inhibition of growth at 10 µM (SK-MEL-5): 3.66%; inhibition of growth at 10 µM (HCC 2998): -23.5%; inhibition of growth at 10 µM (UACC-257): -7.95%; inhibition of growth at 10 µM (EKVX): 7.46%; inhibition of growth at 10 µM (PC-3): 0.46%; inhibition of growth at 10 µM (MCF7): -8.69%; inhibition of growth at 10 µM (BT-549): -17.5%; inhibition of growth at 10 µM (Malme-3M): 2.75%; inhibition of growth at 10 µM (SN12C): 2.71%; inhibition of growth at 10 µM (A549): 5.34%; inhibition of growth at 10 µM (OVCAR-5): -1.01%; inhibition of growth at 10 µM (CAKI-1): 17.7%; inhibition of growth at 10 µM (ACHN): 5.37%
N=C1Nc2c(sc3ccc(Cl)cc23)C(c2cccc(Br)c2)N1 (configuration not stated)	0.84%	13.7%	10.3%	-0.42%	-3.97%	-2.43%	-4.14%	-23.2%	16.5%	-10.1%	12.6%	13%	7.9%	-3.32%	22.4%	1.65%	21.6%	-10.7%	2.51%	3.3%	inhibition of growth at 10 µM (MDA-MB-468): 13.6%; inhibition of growth at 10 µM (K562): 13.7%; inhibition of growth at 10 µM (SW-620): -3.61%; inhibition of growth at 10 µM (SF-268): 6.03%; inhibition of growth at 10 µM (A498): -4.39%; inhibition of growth at 10 µM (SNB-75): 14.4%; inhibition of growth at 10 µM (SK-MEL-5): 3.53%; inhibition of growth at 10 µM (HCC 2998): -13.8%; inhibition of growth at 10 µM (UACC-257): 1.22%; inhibition of growth at 10 µM (EKVX): 14.5%; inhibition of growth at 10 µM (PC-3): 10.2%; inhibition of growth at 10 µM (MCF7): 25.6%; inhibition of growth at 10 µM (BT-549): -21.8%; inhibition of growth at 10 µM (Malme-3M): 4.36%; inhibition of growth at 10 µM (SN12C): 6.52%; inhibition of growth at 10 µM (A549): 1.98%; inhibition of growth at 10 µM (OVCAR-5): -3.33%; inhibition of growth at 10 µM (CAKI-1): 20.5%; inhibition of growth at 10 µM (ACHN): 7.06%

— ChEMBL document CHEMBL4414672, “Synthesis of certain benzothieno[3,2-d]pyrimidine derivatives as a selective SIRT2 inhibitors” (Eur J Med Chem, 2020)
